≈ marks a conversion by molar mass, not a printed value.
Experiments:
[1] = test system: Bacillus; experiment: Antibacterial activity against Bacillus proteus by microbroth dilution method; assay type: functional
[2] = test system: Candida albicans; experiment: Antifungal activity against Candida albicans ATCC 76615 by microbroth dilution method; assay type: functional
[3] = test system: Pseudomonas aeruginosa; experiment: Antibacterial activity against Pseudomonas aeruginosa by microbroth dilution method; assay type: functional
[4] = test system: Staphylococcus aureus; experiment: Antibacterial activity against Staphylococcus aureus ATCC 25923 by microbroth dilution method; assay type: functional
[5] = test system: Salmonella typhi; experiment: Antibacterial activity against Bacillus typhi by microbroth dilution method; assay type: functional, Salmonella enterica subsp. enterica serovar Typhi; settings: Salmonella enterica
[6] = test system: Candida; experiment: Antifungal activity against Candida mycoderma by microbroth dilution method; assay type: functional
[7] = test system: Staphylococcus aureus; experiment: Antibacterial activity against methicillin-resistant Staphylococcus aureus N 315 by microbroth dilution method; assay type: functional
[8] = test system: Escherichia coli; experiment: Antibacterial activity against Escherichia coli JM 109 by microbroth dilution method; assay type: functional
[9] = test system: Bacillus subtilis; experiment: Antibacterial activity against Bacillus subtilis ATCC 6633 by microbroth dilution method; assay type: functional
[10] = test system: Micrococcus luteus; experiment: Antibacterial activity against Micrococcus luteus by microbroth dilution method; assay type: functional

Structure (SMILES) | MIC [1] | MIC [2] | MIC [3] | MIC [4] | MIC [5] | MIC [6] | MIC [7] | MIC [8] | MIC [9] | MIC [10]
O=C1c2cccc3c(Br)ccc(c23)C(=O)N1CCCn1cncn1 | 256 µg/mL (≈ 665 µM) | 256 µg/mL (≈ 665 µM) | 256 µg/mL (≈ 665 µM) | > 512 µg/mL | > 512 µg/mL | 256 µg/mL (≈ 665 µM) | > 512 µg/mL | > 512 µg/mL | 256 µg/mL (≈ 665 µM) | > 512 µg/mL
O=C1c2cccc3c(Br)ccc(c23)C(=O)N1CCCCn1cncn1 | 256 µg/mL (≈ 641 µM) | > 512 µg/mL | 256 µg/mL (≈ 641 µM) | > 512 µg/mL | > 512 µg/mL | > 512 µg/mL | > 512 µg/mL | > 512 µg/mL | > 512 µg/mL | > 512 µg/mL
O=C1c2cccc3c(Br)ccc(c23)C(=O)N1CCCCCn1cncn1 | > 512 µg/mL | > 512 µg/mL | 256 µg/mL (≈ 619 µM) | > 512 µg/mL | > 512 µg/mL | > 512 µg/mL | > 512 µg/mL | > 512 µg/mL | > 512 µg/mL | > 512 µg/mL
O=C1c2cccc3c(Br)ccc(c23)C(=O)N1CCCn1c[n+](Cc2ccc(F)cc2F)cn1.[Br-] | 8 µg/mL | 8 µg/mL | 1 µg/mL | 16 µg/mL | 4 µg/mL | 4 µg/mL | 4 µg/mL | 4 µg/mL | 4 µg/mL | 8 µg/mL
O=C1c2cccc3c(Br)ccc(c23)C(=O)N1CCCn1c[n+](Cc2ccc(Cl)cc2Cl)cn1.[Br-] | 4 µg/mL | 8 µg/mL | 4 µg/mL | 16 µg/mL | 16 µg/mL | 8 µg/mL | 16 µg/mL | 4 µg/mL | 8 µg/mL | 8 µg/mL
O=C1c2cccc3c(Br)ccc(c23)C(=O)N1CCCn1c[n+](Cc2ccc(Cl)c(Cl)c2)cn1.[Br-] | 32 µg/mL | 16 µg/mL | 16 µg/mL | 16 µg/mL | 16 µg/mL | 16 µg/mL | 16 µg/mL | 16 µg/mL | 32 µg/mL | 16 µg/mL
O=C1c2cccc3c(Br)ccc(c23)C(=O)N1CCCn1c[n+](Cc2ccccc2Cl)cn1.[Br-] | 32 µg/mL | 8 µg/mL | 16 µg/mL | 16 µg/mL | 32 µg/mL | 32 µg/mL | 16 µg/mL | 16 µg/mL | 32 µg/mL | 16 µg/mL
O=C1c2cccc3c(Br)ccc(c23)C(=O)N1CCCn1c[n+](Cc2ccc(Cl)cc2)cn1.[Br-] | 16 µg/mL | 16 µg/mL | 8 µg/mL | 32 µg/mL | 16 µg/mL | 16 µg/mL | 8 µg/mL | 8 µg/mL | 16 µg/mL | 8 µg/mL
O=C1c2cccc3c(Br)ccc(c23)C(=O)N1CCCn1c[n+](Cc2ccc([N+](=O)[O-])cc2)cn1.[Br-] | 16 µg/mL | 32 µg/mL | 32 µg/mL | 32 µg/mL | 32 µg/mL | 16 µg/mL | 16 µg/mL | 16 µg/mL | 32 µg/mL | 32 µg/mL
O=C1c2cccc3c(Br)ccc(c23)C(=O)N1CCCCn1c[n+](Cc2ccc(F)cc2F)cn1.[Br-] | 16 µg/mL | 16 µg/mL | 2 µg/mL | 16 µg/mL | 8 µg/mL | 32 µg/mL | 16 µg/mL | 8 µg/mL | 16 µg/mL | 16 µg/mL
O=C1c2cccc3c(Br)ccc(c23)C(=O)N1CCCCCn1c[n+](Cc2ccc(F)cc2F)cn1.[Br-] | 32 µg/mL | 16 µg/mL | 2 µg/mL | 32 µg/mL | 16 µg/mL | 16 µg/mL | 16 µg/mL | 8 µg/mL | 32 µg/mL | 16 µg/mL
O=C1c2cccc3c(Br)ccc(c23)C(=O)N1CCCn1ccnc1 | 16 µg/mL (≈ 41.6 µM) | 64 µg/mL (≈ 167 µM) | 32 µg/mL (≈ 83.3 µM) | 16 µg/mL (≈ 41.6 µM) | 16 µg/mL (≈ 41.6 µM) | 64 µg/mL (≈ 167 µM) | 16 µg/mL (≈ 41.6 µM) | 16 µg/mL (≈ 41.6 µM) | 16 µg/mL (≈ 41.6 µM) | 16 µg/mL (≈ 41.6 µM)
O=C1c2cccc3c(Br)ccc(c23)C(=O)N1CCCCn1ccnc1 | 16 µg/mL (≈ 40.2 µM) | 64 µg/mL (≈ 161 µM) | 16 µg/mL (≈ 40.2 µM) | 16 µg/mL (≈ 40.2 µM) | 16 µg/mL (≈ 40.2 µM) | 32 µg/mL (≈ 80.3 µM) | 16 µg/mL (≈ 40.2 µM) | 8 µg/mL (≈ 20.1 µM) | 32 µg/mL (≈ 80.3 µM) | 16 µg/mL (≈ 40.2 µM)
O=C1c2cccc3c(Br)ccc(c23)C(=O)N1CCCCCn1ccnc1 | 32 µg/mL (≈ 77.6 µM) | 128 µg/mL (≈ 310 µM) | 64 µg/mL (≈ 155 µM) | 64 µg/mL (≈ 155 µM) | 128 µg/mL (≈ 310 µM) | 64 µg/mL (≈ 155 µM) | 128 µg/mL (≈ 310 µM) | 32 µg/mL (≈ 77.6 µM) | 64 µg/mL (≈ 155 µM) | 64 µg/mL (≈ 155 µM)
O=C1c2cccc3c(Br)ccc(c23)C(=O)N1CCCCCCn1ccnc1 | 16 µg/mL (≈ 37.5 µM) | 32 µg/mL (≈ 75.1 µM) | 128 µg/mL (≈ 300 µM) | 64 µg/mL (≈ 150 µM) | 32 µg/mL (≈ 75.1 µM) | 32 µg/mL (≈ 75.1 µM) | 64 µg/mL (≈ 150 µM) | 64 µg/mL (≈ 150 µM) | 16 µg/mL (≈ 37.5 µM) | 128 µg/mL (≈ 300 µM)
O=C1c2cccc3c(Br)ccc(c23)C(=O)N1CCCn1cc[n+](Cc2ccc(F)cc2F)c1.[Br-] | 8 µg/mL | 32 µg/mL | 8 µg/mL | 4 µg/mL | 8 µg/mL | 32 µg/mL | 4 µg/mL | 8 µg/mL | 8 µg/mL | 8 µg/mL
O=C1c2cccc3c(Br)ccc(c23)C(=O)N1CCCCn1cc[n+](Cc2ccc(F)cc2F)c1.[Br-] | 16 µg/mL | 32 µg/mL | 16 µg/mL | 8 µg/mL | 8 µg/mL | 16 µg/mL | 2 µg/mL | 8 µg/mL | 8 µg/mL | 8 µg/mL
O=C1c2cccc3c(Br)ccc(c23)C(=O)N1CCCCCn1cc[n+](Cc2ccc(F)cc2F)c1.[Br-] | 4 µg/mL | 16 µg/mL | 16 µg/mL | 16 µg/mL | 16 µg/mL | 16 µg/mL | 8 µg/mL | 16 µg/mL | 16 µg/mL | 4 µg/mL
O=C1c2cccc3c(Br)ccc(c23)C(=O)N1CCCCCCn1cc[n+](Cc2ccc(F)cc2F)c1.[Br-] | 32 µg/mL | 32 µg/mL | 64 µg/mL | 16 µg/mL | 32 µg/mL | 32 µg/mL | 16 µg/mL | 32 µg/mL | 16 µg/mL | 32 µg/mL
O=C1c2cccc3c(Br)ccc(c23)C(=O)N1CCCCCCn1cncn1 | > 512 µg/mL | > 512 µg/mL | > 512 µg/mL | > 512 µg/mL | > 512 µg/mL | > 512 µg/mL | > 512 µg/mL | > 512 µg/mL | > 512 µg/mL | > 512 µg/mL
O=C1c2cccc3c(Br)ccc(c23)C(=O)N1CCCCCCn1c[n+](Cc2ccc(F)cc2F)cn1.[Br-] | 32 µg/mL | 32 µg/mL | 8 µg/mL | 16 µg/mL | 16 µg/mL | 64 µg/mL | 32 µg/mL | 32 µg/mL | 16 µg/mL | 32 µg/mL
O=C(N[C@H](CO)[C@H](O)c1ccc([N+](=O)[O-])cc1)C(Cl)Cl [CHLORAMPHENICOL] | 2 µg/mL (≈ 6.19 µM) |  | 16 µg/mL (≈ 49.5 µM) | 2 µg/mL (≈ 6.19 µM) | 8 µg/mL (≈ 24.8 µM) |  | 4 µg/mL (≈ 12.4 µM) | 8 µg/mL (≈ 24.8 µM) | 4 µg/mL (≈ 12.4 µM) | 8 µg/mL (≈ 24.8 µM)
OC(Cn1cncn1)(Cn1cncn1)c1ccc(F)cc1F [FLUCONAZOLE] |  | 1 µg/mL (≈ 3.27 µM) |  |  |  | 4 µg/mL (≈ 13.1 µM) |  |  |  | 
C[C@@H]1CN(c2c(F)c(F)c3c(=O)c(C(=O)O)cn(C4CC4)c3c2F)C[C@H](C)N1 [ORBIFLOXACIN] | 4 µg/mL (≈ 10.1 µM) |  | 1 µg/mL (≈ 2.53 µM) | 2 µg/mL (≈ 5.06 µM) | 1 µg/mL (≈ 2.53 µM) |  | 1 µg/mL (≈ 2.53 µM) | 1 µg/mL (≈ 2.53 µM) | 2 µg/mL (≈ 5.06 µM) | 1 µg/mL (≈ 2.53 µM)
